The record followed here is PubChem BioAssay (NCI).

Among the test systems are 786-0 renal; CCRF-CEM leukemia; NCI-H522 lung; NCI/ADR-RES ovarian; PC-3 prostate; RPMI-8226 leukemia; SK-OV-3 ovarian; SNB-19 CNS; UACC-62 melanoma; SNB-75 CNS.
What all share (assay): inhibition of tumour cell growth, NCI panel, 48 h

Where “and” joins values, the source holds several entries; their conditions need not be identical. Equal entries are not always repeated.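 Exposure lasted 48 hours, with cells grown in 96-well plates and compounds tested at five concentrations. At the GI50, growth is halved. TGI marks complete inhibition of growth.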

For the compound `CCOC(=O)n1cc(C2=C(c3ccc(OC)c(OC)c3)COC2=O)c2ccccc21`, the GI50 with 786-0 renal is 0.0625 µM; with CCRF-CEM leukemia, 0.0367 µM; with NCI-H522 lung, 38.9 nM; in the test with NCI/ADR-RES ovarian it was 0.0415 µM; in the test with PC-3 prostate, 0.0404 µM; in the test on RPMI-8226 leukemia it was 0.0327 µM. In addition, the results for the GI50 in the test on SK-OV-3 ovarian, with SNB-19 CNS and in the test on UACC-62 melanoma were 0.817 µM, 0.0551 µM and 0.0436 µM, respectively. The TGI in the test on 786-0 renal was greater than 100 µM; with CCRF-CEM leukemia, greater than 100 µM; in the test with NCI-H522 lung, greater than 33.3 µM; with NCI/ADR-RES ovarian it was greater than 100 µM; with PC-3 prostate it was greater than 100 µM; with RPMI-8226 leukemia it was 1.65 µM. In addition, the TGI with SK-OV-3 ovarian, in the test on SNB-19 CNS and in the test with UACC-62 melanoma was greater than 100 µM each time.
In the case of `CCC(C)SC1SCC2C(=O)N(C)C3(CC3C)C(=O)OCC(NC(=O)c3nc4ccccc4cc3O)C(=O)NC(C)C(=O)N(C)C1C(=O)N(C)C1(CC1C)C(=O)OCC(NC(=O)c1nc3ccccc3cc1O)C(=O)NC(C)C(=O)N2C` (stereo not drawn), the TGI with 786-0 renal was 1.3 µM; in the test with CCRF-CEM leukemia, 0.028 µM and < 0.013 µM; in the test with NCI-H522 lung, 0.00022 µM; in the test with NCI/ADR-RES ovarian it was 6.15 µM; in the test with PC-3 prostate, 0.0049 µM; with RPMI-8226 leukemia, 0.00233 µM. Also, the TGI in the test with SNB-19 CNS turned out to be 0.0296 µM; in the test on SNB-75 CNS it was 8.3e-05 µM; in the test on UACC-62 melanoma, 5.01e-05 µM. Also, the GI50 in the test with NCI-H522 lung was 0.0185 nM.
Consider `NCCNCCNCCN`, for which the GI50 in the test on 786-0 renal, in the test with CCRF-CEM leukemia, in the test on NCI/ADR-RES ovarian, in the test on PC-3 prostate, in the test on SK-OV-3 ovarian and in the test with SNB-19 CNS was greater than 100 µM each time. In addition, the GI50 in the test with SNB-75 CNS and with UACC-62 melanoma was greater than 100 µM throughout. The TGI with 786-0 renal, with CCRF-CEM leukemia, in the test with NCI/ADR-RES ovarian, with PC-3 prostate, with SK-OV-3 ovarian and in the test on SNB-19 CNS was greater than 100 µM in each case. Moreover, the TGI in the test on SNB-75 CNS and with UACC-62 melanoma was greater than 100 µM each time.
In the case of `C=C1C(=O)O[C@H]2[C@H]1CC/C(CNC(=O)c1cc3ccccc3[nH]1)=C\CC[C@@]1(C)O[C@@H]21`, the GI50 is 1.69 µM in the test with 786-0 renal; 0.375 µM in the test with CCRF-CEM leukemia; 1570 nM in the test with NCI-H522 lung; 3.08 µM in the test on NCI/ADR-RES ovarian; 2.03 µM with PC-3 prostate; 1.02 µM in the test with RPMI-8226 leukemia. Also, the GI50 was 11.6 µM in the test on SK-OV-3 ovarian, 7.73 µM with SNB-19 CNS and 6.98 µM with SNB-75 CNS. Moreover, the TGI in the test on 786-0 renal is 3.43 µM; in the test with CCRF-CEM leukemia, 1.76 µM; in the test on NCI-H522 lung, 3.31 µM; in the test on NCI/ADR-RES ovarian, 12.3 µM; with PC-3 prostate it was 4.78 µM; with RPMI-8226 leukemia, 3.88 µM. The TGI came to 23.8 µM in the test on SK-OV-3 ovarian, 23 µM in the test with SNB-19 CNS and 21 µM in the test with SNB-75 CNS.
Turning to `CCOC(=O)C(=[N+]=[N-])C(=O)CN1C(=O)c2ccccc2C1=O`, the TGI in the test with 786-0 renal, in the test with NCI-H522 lung, in the test with PC-3 prostate, in the test on SK-OV-3 ovarian, in the test on SNB-19 CNS and with SNB-75 CNS was greater than 100 µM in each case. This compound also gave a TGI in the test with UACC-62 melanoma greater than 100 µM.
On to `Fc1cc(-c2nnc3n2N=C(c2ccc(Cl)cc2)CS3)c(Cl)cc1Cl`, for which the GI50 in the test on 786-0 renal was 2.08 µM; in the test with CCRF-CEM leukemia it was 0.328 µM; in the test on NCI-H522 lung, 2790 nM; in the test on NCI/ADR-RES ovarian it was 9.29 µM; in the test on PC-3 prostate it was 16.6 µM; in the test with SK-OV-3 ovarian, 22.5 µM. Besides, the GI50 with SNB-19 CNS is 19.1 µM; in the test with SNB-75 CNS it was 7.33 µM; in the test with UACC-62 melanoma it was 4.3 µM. Moreover, the TGI stood at 3.55 µM in the test with 786-0 renal; 1.13 µM in the test with CCRF-CEM leukemia; 36.8 µM in the test on NCI/ADR-RES ovarian; 31.6 µM in the test on PC-3 prostate; 51.5 µM with SK-OV-3 ovarian; 51.1 µM in the test with SNB-19 CNS. The TGI with SNB-75 CNS is 21.9 µM; in the test on UACC-62 melanoma it was 14.9 µM.
For `COc1ccc(Cn2c(Br)c3c(c2Br)-c2nc(N)sc2CC3)cc1`, the GI50 was 5.02 µM in the test on 786-0 renal; 0.472 µM in the test with CCRF-CEM leukemia; 1590 nM with NCI-H522 lung; 4.85 µM in the test on NCI/ADR-RES ovarian; 4.76 µM in the test with PC-3 prostate; 4.01 µM in the test with SK-OV-3 ovarian. Further, the GI50 was 8.68 µM in the test on SNB-19 CNS, 1.92 µM in the test on SNB-75 CNS and 6.97 µM in the test on UACC-62 melanoma. The TGI in the test on 786-0 renal turned out to be 28.6 µM; with CCRF-CEM leukemia, 15.1 µM; in the test on NCI-H522 lung, 3.04 µM; in the test on NCI/ADR-RES ovarian it was 53.5 µM; in the test with PC-3 prostate it was 30.1 µM; in the test on SK-OV-3 ovarian, 20 µM. Moreover, the TGI is greater than 100 µM in the test on SNB-19 CNS, 8.64 µM in the test on SNB-75 CNS and 26 µM with UACC-62 melanoma.
Regarding `O=C(Nc1nc(=S)[nH][nH]1)C(=O)C(C(=O)c1ccc2ccccc2c1)C1OC(=O)c2ccccc21` (stereo not drawn), the TGI with 786-0 renal was 49.5 µM; in the test with CCRF-CEM leukemia it was 80.7 µM; in the test with NCI-H522 lung, 65.3 µM; with RPMI-8226 leukemia, 40.2 µM; in the test with SK-OV-3 ovarian, greater than 100 µM; with SNB-19 CNS, 33.3 µM. In addition, the TGI with SNB-75 CNS was determined as 63.1 µM; in the test on UACC-62 melanoma, 30.2 µM.
Turning to `Clc1ccc2cccc3c2c1C1OC3c2ccccc21` (stereo not drawn), the TGI in the test with 786-0 renal, in the test on CCRF-CEM leukemia, in the test on NCI-H522 lung, in the test with RPMI-8226 leukemia, with SK-OV-3 ovarian and with SNB-19 CNS was greater than 100 µM in each case. The TGI with SNB-75 CNS and in the test on UACC-62 melanoma was greater than 100 µM throughout.
In the case of `C=C(C)C12OC1[C@@]1(C)C(=CC2=O)CCC(O)[C@@H]1C` (stereo partly drawn), the TGI is 13.4 µM in the test on 786-0 renal; 8.82 µM in the test on CCRF-CEM leukemia; 5.91 µM in the test on NCI-H522 lung; 27.8 µM with PC-3 prostate; 24 µM in the test on RPMI-8226 leukemia; 33.2 µM in the test on SNB-19 CNS. Moreover, the results for the TGI in the test with SNB-75 CNS and in the test with UACC-62 melanoma were 38.8 µM and 75.4 µM, respectively.
